Measured values from patent publication US20050090466A1, “Inhibitors of PACE4 for the treatment of arthritis” (Pharmacia & Upjohn Company LLC, priority 2003, published 2005).

Experiments:
PACE4 mRNA [1] = experiment: Electrophoresis gel of aggrecan degradation products in TNF/OSM treated cartilage explants; assay type: cell-based, human; conditions: 100 nM dsRNA, vs controls, FIG. 2
Method: FIG. 2 depicts an electrophoresis gel showing aggrecan-degradation products in untreated (lane 1), TNF/OSM treated control (lane 2) and TNF/OSM treated, PACE4 siRNA treated cartilage explants; and
(§1) The sequence CGGCAAUGAUUAUGACCCAtt (SEQ ID NO. 2) was selected as a sense strand for dsRNA. The corresponding antisense strand, UGGGUCAUAAUCAUUGCCGtt, (SEQ ID NO. 3) was also selected. dsRNA was synthesized commercially (Ambion, Austin, Tex. 78744-1832 USA) and 100 nM was introduced into cultured human chondrocytes and human cartilage stimulated with TNF-α and Oncostatin M (OSM). It is known that stimulation of cartilage or chondrocytes with TNF-α and OSM will induce cartilage degradation and upregulate aggrecanase. Nonsense dsRNA, that is, dsRNA with the same […], but scrambled in sequence, were introduced into cultured human chondrocytes and human cartilage explants as controls. The control groups are not expected to induce RNAi, since the dsRNA is not expected to produce an inhibitory effect on mRNA. […] 2 and SEQ ID NO. 3.
Referring now to FIG. 2, the aggrecanase mediated cleavage of aggrecan, shown by the aggrecan derived peptide neopitope fragment AGEG (SEQ ID NO. 10) and the aggrecan derived peptide neopepitope fragment ARGS (SEQ ID NO. 11) was reduced with interfering dsRNA, as compared to controls.

PACE4 mRNA [2] = experiment: Aggrecanase activity in TNF-α and OSM stimulated cultured human chondrocytes after PACE4 RNAi; assay type: cell-based; conditions: 100 nM dsRNA; human chondrocytes stimulated with TNF-α and OSM; vs stimulated controls; FIG. 1
Method: as §1

PACE4 mRNA [3] = experiment: Glycosaminoglycan (GAG) release from TNF/OSM treated cartilage explants into the supernatant; assay type: cell-based, human; conditions: 100 nM dsRNA, vs nonsense dsRNA, FIG. 3
Excerpt: FIG. 3 is a bar graph showing glycosaminoglycan (GAG) release from cartilage explants into the supernatant is reduced in TNF/OSM treated cartilage explants with the addition of siRNA of SEQ ID NO. 2 and SEQ ID NO. 3 (narrow shaded bar) as compared with normal control (unshaded bar) and TNF/OSM treated cartilage explants with nonsense dsRNA.
as §1
Glycosaminoglycan (GAG) release from proteoglycan and depressed proteoglycan synthesis are thought to be correlated with cartilage destruction in arthritis. […]

siRNA of SEQ ID NO. 2 and SEQ ID NO. 3: dsRNA: sense strand CGGCAAUGAUUAUGACCCAtt (SEQ ID NO. 2), antisense strand UGGGUCAUAAUCAUUGCCGtt (SEQ ID NO. 3); inhibits PACE4 mRNA (sense CGGCAAUGAUUAUGACCCATT; antisense UGGGUCAUAAUCAUUGCCGTT; dsRNA with lower-case tt overhangs, chemistry of tt not given here, further chemistry not given here)
aggrecanase mediated cleavage of aggrecan (neoepitope fragments AGEG and ARGS) (PACE4 mRNA [1]): reduced
reduction in aggrecanase activity (PACE4 mRNA [2]): greater than eighty percent reduction
glycosaminoglycan (GAG) release from cartilage explants into the supernatant (PACE4 mRNA [3]): reduced
